# Values joined by “and” are separate entries in the source; they are usually repeats but may differ in a detail not shown here. Equal entries are not always repeated. Active and inactive are the calls of the source.
# Legend:
# [1] = Late-stage results from the probe development effort to identify antagonists of arginine vasopressin receptor 1a (AVPR1a): fluorescence-based cell-based dose response AVPR1a inhibition assay.; format: functional
# Vasopressin V1b receptor = Vasopressin V1b receptor (Homo sapiens, UniProt P47901); experiment: Late-stage results from the probe development effort to identify antagonists of arginine vasopressin receptor 1a (AVPR1a): fluorescence-based cell-based dose response AVPR1b inhibition counterscreen assay.; format: functional
# Chain of Vasopressin V1b receptor (P47901 whole entry): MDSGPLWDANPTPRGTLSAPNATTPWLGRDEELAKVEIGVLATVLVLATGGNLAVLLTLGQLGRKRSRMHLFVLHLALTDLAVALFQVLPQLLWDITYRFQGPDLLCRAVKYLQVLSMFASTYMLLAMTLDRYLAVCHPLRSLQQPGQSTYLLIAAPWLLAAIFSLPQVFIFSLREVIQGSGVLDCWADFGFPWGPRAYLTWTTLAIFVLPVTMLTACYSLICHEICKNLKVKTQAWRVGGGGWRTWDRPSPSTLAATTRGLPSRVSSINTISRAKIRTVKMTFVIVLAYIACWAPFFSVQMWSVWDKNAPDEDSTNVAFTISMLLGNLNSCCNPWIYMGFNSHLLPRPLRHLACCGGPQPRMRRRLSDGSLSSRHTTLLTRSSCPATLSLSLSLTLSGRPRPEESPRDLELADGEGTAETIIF
# Vasopressin V2 receptor = Vasopressin V2 receptor (Homo sapiens, UniProt P30518); experiment: Late-stage results from the probe development effort to identify antagonists of arginine vasopressin receptor 1a (AVPR1a): fluorescence-based cell-based dose response AVPR2 inhibition counterscreen assay.; format: functional
# Chain of Vasopressin V2 receptor (P30518 whole entry): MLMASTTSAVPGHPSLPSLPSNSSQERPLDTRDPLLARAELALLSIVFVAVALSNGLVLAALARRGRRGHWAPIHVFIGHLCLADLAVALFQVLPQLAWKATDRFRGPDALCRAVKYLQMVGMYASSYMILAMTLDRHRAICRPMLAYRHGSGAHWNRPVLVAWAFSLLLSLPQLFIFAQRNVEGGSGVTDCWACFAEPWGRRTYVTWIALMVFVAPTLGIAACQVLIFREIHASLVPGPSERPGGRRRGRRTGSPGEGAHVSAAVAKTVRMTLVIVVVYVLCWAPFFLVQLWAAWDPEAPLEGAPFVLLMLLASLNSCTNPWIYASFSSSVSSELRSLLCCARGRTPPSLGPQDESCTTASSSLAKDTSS
# [2] = Late-stage results from the probe development effort to identify antagonists of arginine vasopressin receptor 1a (AVPR1a): fluorescence-based cell-based dose response OXTR inhibition counterscreen assay.; format: functional
# HEK293 [3] = experiment: NOD1 signaling inhibitors, primary screen, cell-based, luminescence, uHTS (AID 1578); format: functional; conditions: Homo sapiens
# HEK293 [4] = experiment: cells; format: functional, cell-based; conditions: Homo sapiens
# HEK293 [5] = experiment: cells; format: functional, cell-based; conditions: Homo sapiens; remark: listed apart in the source
# HEK293 [6] = experiment: NOD2 signaling inhibitors in MDP-stimulated cells, cell-based, uHTS, luminescence (AID 2001); format: functional; conditions: Homo sapiens
# Tumor necrosis factor = Tumor necrosis factor (Homo sapiens, UniProt P01375); experiment: TNFa-triggered NF-kB activation inhibitors, SAR follow-up, cell-based, revised (AID 2337); format: functional
# Chain of Tumor necrosis factor (P01375 whole entry, the tested form may be a part): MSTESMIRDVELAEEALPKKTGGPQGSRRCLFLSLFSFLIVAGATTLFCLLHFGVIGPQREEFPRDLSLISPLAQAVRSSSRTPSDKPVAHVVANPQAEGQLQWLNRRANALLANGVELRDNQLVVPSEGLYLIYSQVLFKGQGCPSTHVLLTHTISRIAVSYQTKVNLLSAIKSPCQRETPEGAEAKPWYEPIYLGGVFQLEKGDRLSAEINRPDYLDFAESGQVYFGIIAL
# [7] = biological target: T1, Nucleotide-binding oligomerization domain-containing protein 1 (Homo sapiens, UniProt Q9Y239); experiment: NOD1 signaling inhibitors, SAR follow-up, revised (AID 2333); format: functional
# T1 sequence (Q9Y239 whole entry): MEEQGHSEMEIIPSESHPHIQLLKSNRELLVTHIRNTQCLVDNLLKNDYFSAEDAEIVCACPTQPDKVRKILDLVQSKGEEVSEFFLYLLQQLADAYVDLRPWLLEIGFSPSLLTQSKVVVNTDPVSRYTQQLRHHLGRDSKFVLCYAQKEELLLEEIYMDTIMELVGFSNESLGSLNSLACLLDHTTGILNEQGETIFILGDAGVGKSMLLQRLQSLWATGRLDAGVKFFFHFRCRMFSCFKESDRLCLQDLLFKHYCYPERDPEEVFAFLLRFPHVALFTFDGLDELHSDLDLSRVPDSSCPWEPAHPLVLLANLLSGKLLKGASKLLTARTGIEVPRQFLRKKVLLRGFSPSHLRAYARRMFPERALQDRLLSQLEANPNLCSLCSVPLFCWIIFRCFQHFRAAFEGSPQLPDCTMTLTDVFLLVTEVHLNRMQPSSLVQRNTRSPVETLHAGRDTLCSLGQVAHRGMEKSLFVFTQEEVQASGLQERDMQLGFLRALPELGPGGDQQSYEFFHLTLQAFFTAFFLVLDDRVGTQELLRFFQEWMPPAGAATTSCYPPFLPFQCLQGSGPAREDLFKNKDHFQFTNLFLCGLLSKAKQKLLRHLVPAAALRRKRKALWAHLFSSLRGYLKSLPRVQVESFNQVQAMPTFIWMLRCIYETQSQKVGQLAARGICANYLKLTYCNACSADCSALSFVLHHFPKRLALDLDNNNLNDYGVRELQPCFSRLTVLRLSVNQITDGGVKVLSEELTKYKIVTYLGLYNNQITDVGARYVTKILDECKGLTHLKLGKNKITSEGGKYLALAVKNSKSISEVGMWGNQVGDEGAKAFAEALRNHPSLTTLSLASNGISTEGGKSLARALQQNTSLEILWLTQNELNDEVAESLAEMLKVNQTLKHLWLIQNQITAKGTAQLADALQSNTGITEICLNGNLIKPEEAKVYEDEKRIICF
# [8] = ADAM10 inhibitors, peptide cleavage, dose response, biochemical, QFRET (AID 743254);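 also: ADAM10 enzyme with the DM2 quenched FRET peptide as substrate; EDANS fluorescence gain as the protease cuts the substrate; inhibitor potency against ADAM10 proteolytic activity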
# [9] = biological target: Disintegrin and metalloproteinase domain-containing protein 17 (Homo sapiens, UniProt P78536); experiment: ADAM17 protease inhibitors, dose response, counter-screen for ADAM10 exosite inhibitor project, biochemical, quenched FRET substrate (AID 743253)
# Chain of Disintegrin and metalloproteinase domain-containing protein 17 (P78536 whole entry, the tested form may be a part): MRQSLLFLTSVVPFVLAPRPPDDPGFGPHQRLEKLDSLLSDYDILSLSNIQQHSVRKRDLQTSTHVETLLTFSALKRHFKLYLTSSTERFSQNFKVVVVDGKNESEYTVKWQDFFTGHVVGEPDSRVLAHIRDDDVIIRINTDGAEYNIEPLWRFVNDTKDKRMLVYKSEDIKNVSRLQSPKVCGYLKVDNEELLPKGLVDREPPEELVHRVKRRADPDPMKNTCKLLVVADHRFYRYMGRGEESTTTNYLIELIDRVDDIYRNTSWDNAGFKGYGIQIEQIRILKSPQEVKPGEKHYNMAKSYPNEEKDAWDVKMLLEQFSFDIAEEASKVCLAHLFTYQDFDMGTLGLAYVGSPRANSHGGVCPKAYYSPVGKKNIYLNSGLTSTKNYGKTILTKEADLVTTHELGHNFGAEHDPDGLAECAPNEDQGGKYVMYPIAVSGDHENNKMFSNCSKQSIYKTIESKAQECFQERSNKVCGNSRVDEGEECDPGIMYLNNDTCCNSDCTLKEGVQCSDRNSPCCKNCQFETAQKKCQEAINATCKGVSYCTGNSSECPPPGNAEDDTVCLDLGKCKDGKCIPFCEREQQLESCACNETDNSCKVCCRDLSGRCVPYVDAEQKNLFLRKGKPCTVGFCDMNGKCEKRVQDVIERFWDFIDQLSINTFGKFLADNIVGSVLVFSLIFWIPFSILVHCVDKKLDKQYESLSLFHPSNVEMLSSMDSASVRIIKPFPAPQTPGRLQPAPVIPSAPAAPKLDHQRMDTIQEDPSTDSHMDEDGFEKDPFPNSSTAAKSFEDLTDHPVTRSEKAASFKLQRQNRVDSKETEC
# HEK293 [10] = experiment: cells; conditions: Homo sapiens
# HEK293 [11] = experiment: cells; conditions: Homo sapiens; remark: listed apart in the source
# HEK293 [12] = experiment: cells; conditions: Homo sapiens; remark: listed apart in the source
# Paired box protein Pax-8 = Paired box protein Pax-8 (Homo sapiens, UniProt Q06710); experiment: inhibitors of PAX8-driven TPO luciferase reporter, dose response, RMG-I cells, cherry-pick (AID 687027); format: functional, cell-based;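 also: luciferase reporter driven by Pax8 target thyroperoxidase promoter measured by SteadyGlo luminescence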
# Chain of Paired box protein Pax-8 (Q06710 whole entry): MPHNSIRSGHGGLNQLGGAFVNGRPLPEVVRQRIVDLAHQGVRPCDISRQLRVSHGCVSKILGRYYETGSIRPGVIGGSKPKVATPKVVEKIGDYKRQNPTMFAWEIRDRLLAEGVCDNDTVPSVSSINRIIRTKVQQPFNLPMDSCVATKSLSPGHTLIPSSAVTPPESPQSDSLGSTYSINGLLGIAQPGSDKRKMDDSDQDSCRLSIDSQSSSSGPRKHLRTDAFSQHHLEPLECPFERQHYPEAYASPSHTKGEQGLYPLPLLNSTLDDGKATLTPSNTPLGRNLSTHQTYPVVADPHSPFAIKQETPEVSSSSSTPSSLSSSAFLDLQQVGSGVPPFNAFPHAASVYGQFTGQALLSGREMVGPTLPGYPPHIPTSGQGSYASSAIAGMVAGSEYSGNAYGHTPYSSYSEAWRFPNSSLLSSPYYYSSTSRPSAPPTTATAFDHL
# [13] = A2780 ovarian cancer cell cytotoxicity, dose response, cytotoxicity control, plate reader, dry powder samples (AID 743046); format: functional, cell-based
# [14] = NIH:OVCAR-3 ovarian cancer cell cytotoxicity, dose response, PAX8 inhibitor project, plate reader, dry powder samples (AID 743044); format: functional, cell-based
# [15] = non-specific cell cytotoxicity, dose response, cytotoxicity control for PAX8 inhibitor project, plate reader, dry powder samples (AID 743021); format: functional, cell-based
# [16] = cytotoxicity in OVCAR8 ovarian cancer cells, dose response, PAX8 project, cell-based, plate reader, dry powder samples (AID 743197); format: functional; conditions: OVCAR-8
# Kallikrein-7 = Kallikrein-7 (Homo sapiens, UniProt P49862); experiment: Fluorescence Intensity-based biochemical primary high throughput dose response assay to identify activators of kallikrein-7 (K7) zymogen.
# Chain of Kallikrein-7 (P49862 whole entry): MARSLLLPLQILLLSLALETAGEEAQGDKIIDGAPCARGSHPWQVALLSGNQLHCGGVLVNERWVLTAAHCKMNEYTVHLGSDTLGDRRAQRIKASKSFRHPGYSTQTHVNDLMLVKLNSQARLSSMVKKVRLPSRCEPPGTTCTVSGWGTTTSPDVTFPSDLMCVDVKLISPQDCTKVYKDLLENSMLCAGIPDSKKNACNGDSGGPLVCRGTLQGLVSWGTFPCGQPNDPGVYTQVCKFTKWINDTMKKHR
structure (smiles),measurement,setting,value
COCCN(C(=O)N1CCN(c2ccccc2C)CC1)c1ccc(OC)cc1,IC50,[1],0.1 µM (active)
same,IC50,Vasopressin V1b receptor,29.3 µM (inactive)
same,IC50,Vasopressin V2 receptor,19.6 µM (inactive)
same,IC50,[2],1 µM (active)
CCOc1ccc(NC(=O)c2ccc(CN3CCc4ccccc4C3)cc2)cc1,EC50,HEK293 [3],0.79 µM (active)
same,IC50,HEK293 [4],3.96 µM (active)
same,IC50,HEK293 [5],> 20 µM (inactive)
same,IC50,HEK293 [6],> 20 µM (inactive)
same,IC50,Tumor necrosis factor,6.05 µM (active) and 2.05 µM (active)
same,IC50,[7],1.79 µM (active) and 1.13 µM (active)
same,IC50,[8],> 69.5 µM (inactive)
same,IC50,[9],> 69.5 µM (inactive)
same,IC50,HEK293 [10],> 20 µM (inactive)
O=C(C1CCN(c2ccc(F)cn2)CC1)N(CC1CC1)c1ccc(Cl)cc1,IC50,[1],0.0241 µM (active)
same,IC50,Vasopressin V1b receptor,20.5 µM (inactive)
same,IC50,Vasopressin V2 receptor,24.3 µM (inactive)
same,IC50,[2],9 µM (active)
CC1(Cc2cccc(C#N)c2)C(=O)Nc2ccc(-c3cccc(C(F)(F)F)c3)cc21 (centres undefined),IC50,[8],8.9 µM (active)
same,IC50,[9],> 69.5 µM (inactive)
same,EC50,HEK293 [11],> 59.7 µM (inactive)
same,EC50,HEK293 [12],> 59.7 µM (inactive)
Cc1ccccc1-c1ccc2c(c1)O[C@H](CN(C)C(=O)Nc1ccc(C(F)(F)F)cc1)[C@H](C)CN([C@@H](C)CO)S2(=O)=O,AC50,Paired box protein Pax-8,9.3 µM (active)
same,AC50,[13],< 0.26 µM (active)
same,AC50,[14],42.5 µM (active)
same,AC50,[15],44.3 µM (active)
C[C@H](CO)N1C[C@H](C)[C@H](CN(C)S(=O)(=O)c2ccccc2)OCCCC[C@H](C)Oc2ccc(NS(=O)(=O)c3ccc(Cl)cc3)cc2C1=O,AC50,Paired box protein Pax-8,10.1 µM (active)
same,AC50,[13],6.87 µM (active)
same,AC50,[16],3.41 µM (active)
COc1ccccc1N(C)S(=O)(=O)c1ccc(C(=O)Nc2ccc(C(N)=O)cc2)cc1,EC50,Kallikrein-7,15.8 µM (inactive)
